# Assay results from US11452764B2, “Inhibiting FAK-AKT interaction to inhibit metastasis” (Board of Trustees of Michigan State University, priority 2017, dated 2022).
# Entries after “also recorded” stand apart in the source; their conditions may differ.
# Assays:
# [1] = test system: FAK-Tyr-397 phosphorylation; experiment: FAK-Y397 western blotting in suspended SW620 cells at ambient or 15 mmHg increased pressure (ZINC compounds); assay type: cell-based, human; settings: 50 μM
# Source text: (§1) Extracellular pressure was increased by 15 mmHg over ambient pressure using a temperature and pressure-controlled box as described by Basson et al. (J Cell Biochem, 78: 47-61 (2000)).
# Cells were maintained at ambient or increased pressure in bacteriologic plastic dishes pacificated with heat-inactivated bovine serum albumin to prevent adhesion and avoid adhesion-associated background FAK activation. Cells were lysed in lysis buffer, resolved by 10% SDS-PAGE, transferred to nitrocellulose and blotted with antibody to Tyr-397-phosphorylated FAK (rabbit monoclonal ab81298, Abcam, San Francisco, Calif., USA) and anti-rabbit 680 (LI-COR Inc. Lincoln, Nebr., USA), before quantitation using Kodak Scientific Imaging Systems 1D, V.3.5.4 (Zeng et al., Oncotarget, 8 98051-98067 (2017)). Total FAK (Anti-FAK, clone 4.47 Merck, Darmstadt, Germany with secondary anti-mouse 800, LI-COR Inc. Lincoln, Nebr., USA) served as a loading control. FAK and Tyr-397-phosphorylated FAK western blots yielded doublets similar to those previously observed by others (McConnell et al. Mol Cancer 10: 75 (2011); Aflaki et al. Cell Mol Life Sci, 68: 3933-3947 (2011)); Das et al. Cancer Res, 72: 6217-6226 (2012); Ammoun et al. Oncogene, 31: 1710-1722 (2012)). Both bands were quantitated together.
# Four structurally similar molecules to the FAK-derived sequence LAHPP (SEQ ID NO:25) (Table 2) were evaluated for their ability to prevent FAK activation by 15 mmHg increased extracellular pressure in human SW620 colon cancer cells. […] The structures of these compounds are shown below (and in FIG. 17).
# [2] = test system: SW620 colon cancer cells; experiment: Adhesion assay of SW620 cells to collagen I at ambient or 15 mmHg increased pressure (ZINC compounds); assay type: cell-based, human; settings: 30 minutes; for Concentration at which pressure stimulated adhesion was blocked / Pressure stimulated adhesion: 15 mmHg; for Pressure stimulated adhesion / Basal adhesion: concentrations studied 10-200 μM (per compound in Table 3); for Basal adhesion: ambient pressure
# Procedure: as §1
# Cells were seeded in an amount of 50,000 cells/well into 24 well plates precoated with collagen I (Sigma, St. Louis, Mo., USA) at 37° C. under ambient or 15 mmHg increased pressure as described by Basson et al. J Cell Biochem 78: 47-61 (2000)). After 30 minutes, non-adherent cells were washed away. Adherent cells were stained with MTS (CellTiter 96® AQueous One Solution Cell Proliferation Assay, Madison, Wis., USA) and plates were read at 490 nm.
# Seven molecules were studied that structurally mimic AAHPSEE (SEQ ID NO:24), including five analogs of ZINC04085549 (FIG. 16A-16G). These molecules' effects on basal and pressure-stimulated human SW620 colon cancer cell adhesion to collagen I were assayed first. Most molecules had no effect at the concentrations studied (Table 3).
# [3] = molecular target: Akt1 (Homo sapiens, UniProt P31749); settings: Zeng et al., Oncotarget 2017; cited from earlier work
# Akt1, sequence (P31749 whole entry, species assumed): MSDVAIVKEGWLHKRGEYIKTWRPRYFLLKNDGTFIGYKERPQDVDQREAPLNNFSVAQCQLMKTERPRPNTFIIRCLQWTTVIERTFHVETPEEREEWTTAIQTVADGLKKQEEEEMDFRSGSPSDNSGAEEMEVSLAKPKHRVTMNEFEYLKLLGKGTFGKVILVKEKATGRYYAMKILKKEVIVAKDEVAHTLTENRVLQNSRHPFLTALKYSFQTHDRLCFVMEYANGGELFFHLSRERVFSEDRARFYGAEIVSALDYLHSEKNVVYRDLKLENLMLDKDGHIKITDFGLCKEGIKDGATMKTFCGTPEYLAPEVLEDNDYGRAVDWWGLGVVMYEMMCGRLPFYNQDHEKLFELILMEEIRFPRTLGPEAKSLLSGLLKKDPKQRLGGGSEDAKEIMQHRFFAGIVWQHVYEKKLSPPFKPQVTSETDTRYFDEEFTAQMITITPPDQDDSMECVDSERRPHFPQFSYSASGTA
Compound,Basal ambient pressure FAK-Tyr-397 phosphorylation ([1]; suspended SW620),"Pressure-stimulated FAK-Tyr-397 phosphorylation ([1]; suspended SW620, 15 mmHg)",Concentration at which pressure stimulated adhesion was blocked [2],Pressure stimulated adhesion [2],Basal adhesion [2],Competition with FAK for binding to AKT1 [3]
Cc1ccccc1C(=O)O/N=C1\CCCCC1c1ccc([N+](=O)[O-])cc1[N+](=O)[O-] (stereo not drawn) [ZINC04085549],without affecting basal ambient pressure FAK-Tyr-397 phosphorylation,prevented pressure-stimulated FAK-Tyr-397 phosphorylation,≥50 µM,prevented pressure-stimulated increases in SW620 adhesion; also recorded: Blocked,without altering basal adhesiveness at ambient pressure; also recorded: Maintained,
COc1ccc(C(=O)O/N=C2\CCCCC2c2ccc([N+](=O)[O-])cc2[N+](=O)[O-])cc1 (stereo not drawn) [ZINC4085554],,,≥50 µM,prevented pressure-stimulated increases in SW620 adhesion; also recorded: Blocked,without altering basal adhesiveness at ambient pressure; also recorded: Maintained,
"AAHPSEE [two-site mutant of FAK residues 113-119, more helical analog used as screening query]",,,,,,effectively compete with FAK for binding to AKT1
